Data taken from publication PMC10682503, “Structural and functional basis of inositol hexaphosphate stimulation of NHEJ through stabilization of Ku-XLF interaction” (Nucleic Acids Research, 2023).
Read-outs that look alike come from different tables or passages of the source.

Tests used:
[1] = molecular target: T1, Ku-4E (Ku70 H359E-H360E/Ku80 K413E H414E) (Homo sapiens, UniProt P12956+P13010, H359E/H360E/H414E/K413E); test: nanoDSF thermal stability of Ku-4E; conditions: Ku-4E with DNA
T1 construct: 10x His-tag with TEV site (same vector as KuFL) (N); made in house; host or cells: Sf21 insect cells
T1 sequence (P12956 whole entry H359E/H360E): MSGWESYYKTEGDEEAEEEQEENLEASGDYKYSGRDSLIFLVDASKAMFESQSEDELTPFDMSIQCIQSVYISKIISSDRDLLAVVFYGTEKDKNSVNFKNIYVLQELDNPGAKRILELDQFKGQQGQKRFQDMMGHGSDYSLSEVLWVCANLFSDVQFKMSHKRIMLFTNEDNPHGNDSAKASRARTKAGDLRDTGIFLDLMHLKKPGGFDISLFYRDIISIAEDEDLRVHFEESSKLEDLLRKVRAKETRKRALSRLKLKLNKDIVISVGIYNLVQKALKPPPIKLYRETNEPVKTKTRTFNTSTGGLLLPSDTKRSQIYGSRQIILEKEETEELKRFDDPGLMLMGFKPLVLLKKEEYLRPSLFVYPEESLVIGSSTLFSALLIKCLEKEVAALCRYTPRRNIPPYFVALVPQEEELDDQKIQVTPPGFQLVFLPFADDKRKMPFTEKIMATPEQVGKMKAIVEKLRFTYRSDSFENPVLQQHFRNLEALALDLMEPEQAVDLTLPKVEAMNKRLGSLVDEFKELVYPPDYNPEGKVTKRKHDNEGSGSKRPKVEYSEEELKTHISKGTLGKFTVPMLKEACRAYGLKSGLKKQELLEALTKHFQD
T1 sequence (P13010 whole entry K413E/H414E): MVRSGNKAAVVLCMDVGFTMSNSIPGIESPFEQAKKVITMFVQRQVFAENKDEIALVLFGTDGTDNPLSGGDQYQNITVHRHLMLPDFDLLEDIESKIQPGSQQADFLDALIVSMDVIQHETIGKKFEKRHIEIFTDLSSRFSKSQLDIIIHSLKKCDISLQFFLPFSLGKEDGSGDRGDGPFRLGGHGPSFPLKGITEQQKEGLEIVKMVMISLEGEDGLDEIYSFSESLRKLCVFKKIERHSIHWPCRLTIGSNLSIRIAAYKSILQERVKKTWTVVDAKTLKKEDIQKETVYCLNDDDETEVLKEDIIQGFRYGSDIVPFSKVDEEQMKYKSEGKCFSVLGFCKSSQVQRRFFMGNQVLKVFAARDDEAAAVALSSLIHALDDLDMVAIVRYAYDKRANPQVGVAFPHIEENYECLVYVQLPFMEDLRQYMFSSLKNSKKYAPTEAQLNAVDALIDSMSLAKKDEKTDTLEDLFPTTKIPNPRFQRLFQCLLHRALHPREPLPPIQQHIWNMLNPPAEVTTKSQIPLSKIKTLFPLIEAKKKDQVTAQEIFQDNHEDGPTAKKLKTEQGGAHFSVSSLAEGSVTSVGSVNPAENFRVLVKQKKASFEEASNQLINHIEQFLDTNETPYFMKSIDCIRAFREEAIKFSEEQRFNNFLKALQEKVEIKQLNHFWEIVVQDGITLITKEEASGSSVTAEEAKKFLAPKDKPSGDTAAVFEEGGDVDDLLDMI

Ku = molecular target: Ku; parameters: method as in PMID 18776215; conditions: competition assays with 3H-IP6; cited from earlier work
Ku-XLF interaction = molecular target: T2, Ku-XLF interaction (Homo sapiens, UniProt P12956+P13010); test: switchSENSE analysis of Ku-DNA interaction with XLF; assay type: binding; conditions: IP6 20 μM; for Kd: biphasic fit
T2 construct: The full-length human Ku heterodimer subunits (Ku70 1–609, Ku80 1–732); 10x His-tag with TEV site (N); made in house; host or cells: Sf21 insect cells (Ku)
T2 sequence (P12956 whole entry): as the sequence (P12956 whole entry H359E/H360E) above, with E359H, E360H counted along it
T2 sequence (P13010 whole entry): as the sequence (P13010 whole entry K413E/H414E) above, with E413K, E414H counted along it
T2 sequence (Q9H9Q4 whole entry partner): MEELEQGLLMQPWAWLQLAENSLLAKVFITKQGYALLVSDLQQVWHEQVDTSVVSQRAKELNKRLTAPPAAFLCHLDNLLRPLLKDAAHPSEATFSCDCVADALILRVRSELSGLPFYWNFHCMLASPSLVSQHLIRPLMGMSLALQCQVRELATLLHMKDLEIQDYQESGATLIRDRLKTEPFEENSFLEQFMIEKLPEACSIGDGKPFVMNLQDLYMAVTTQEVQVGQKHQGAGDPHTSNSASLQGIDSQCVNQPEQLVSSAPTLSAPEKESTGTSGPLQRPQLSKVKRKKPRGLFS
Protocol: (§1) switchSENSE: A DRX 2400 instrument and a multi-purpose 48bp chip were used for switchSENSE measurements (both Dynamic Biosensors GmbH; Planegg, Germany). The sample and running buffer was in 10 mM Tris HCl pH 7.4, 140 mM NaCl, 50 µM EDTA, 0.05 % Tween-20, 50µM EDTA. Kinetics experiments of Ku interaction with DNA in presence or absence of IP6 were performed on a DRX2 instrument. Complementary DNA to the strand immobilized on the chip was first hybridized on the measurement electrodes. The association and dissociation between Ku and DNA, with or without IP6 (3 µM) at Ku concentration (0-15-30-60-120-240 nM were measured in a flow rate of 200 µL/min. Kinetics experiments of Ku interaction with DNA and XLF with or without DNA were performed on a Helix instrument. The sample and running buffer was in 10 mM Tris HCl pH 7.4, 140 mM NaCl, 50 µM EDTA, 0.05 % Tween-20 with or without IP6 (20 µM). The flow rate of all conditions are at 500 µL/min.
A complementary DNA is hybridized onto an anchor DNA on the measurement chip in order to obtain a 96 base paired DNA with nick. KuFL is then captured under saturation condition (SI figure 13a and 13c). Association and dissociation between XLF and Ku-DNA is then monitored using 1, 2 or 8 µM of XLF, with or without IP6 in working buffer (SI figure 13c and d) . The fit is realised using biphasic model from BDS software.

[2] = molecular target: T1, Ku-4E (Ku70 H359E-H360E/Ku80 K413E H414E); test: ITC, Ku-4E mutant with IP6; assay type: binding
Protocol: Purification of Ku full-length (KuFL) for cryo-EM experiments was carried out as described previously ([5]). Expression and purification of KuFL for biophysical experiments was carried out as described previously ([20]). The full-length human Ku heterodimer subunits (Ku70 1–609, Ku80 1–732) were cloned into a Multibac vector ([21]). The construct has a 10× His-tag and a TEV site on the N-terminus of Ku80 and no-tag on Ku70. Protein production was initiated in Sf21 cells by infection with the baculovirus stock at MOI of 5 × 10^−3 and cells were collected 5–6 days after the infection (3–4 days after the proliferation arrest). Cells were sonicated and the supernatant was incubated with Benzonase (300 units for 30 min at 4°C). The Ku heterodimer was purified on a NiNTA-Agarose affinity column (Protino, Macherey Nagel) with a 1 M NaCl wash step to remove DNA excess. The eluted Ku was then bound onto an anion exchange column (Resource Q, Cytiva) equilibrated in 20 mM Tris pH 8.0, 50 mM NaCl, 50 mM KCl, 10 mM β-mercaptoethanol and eluted with a salt gradient. […]
Calorimetry. Interactions between KuFL and inositol phosphates (IPs) (IP6 and IP6 analogues) were determined by Isothermal Titration Calorimetry (ITC) using a VP-ITC calorimeter (Malvern). […] The free energy of binding (ΔG) and the entropy (ΔS) were determined using the classical thermodynamic formula, ΔG = - RT ln(Ka) and ΔG = ΔH - TΔS. […]

KuFL = molecular target: T3, KuFL (Homo sapiens, UniProt P12956+P13010); test: nanoDSF thermal stability of KuFL; conditions: in the absence of DNA, increasing IP6 concentrations
T3 construct: The full-length human Ku heterodimer subunits (Ku70 1–609, Ku80 1–732); 10x His-tag with TEV site (N); made in house; host or cells: Sf21 insect cells (baculovirus, MultiBac)
T3 sequence (P12956 whole entry): as the sequence (P12956 whole entry H359E/H360E) above, with E359H, E360H counted along it
T3 sequence (P13010 whole entry): as the sequence (P13010 whole entry K413E/H414E) above, with E413K, E414H counted along it
Protocol: nano-Differential Scanning Fluorimetry. nanoDSF measurements were performed on a Tycho NT.6 device (NanoTemper) with KuFL dialyzed against buffer 20 mM Tris HCl pH 8, 150 mM NaCl, 5 mM β-mercaptoethanol. We used 9 µL of KuFL at 5 µM in absence or presence of DNA at 7.5 µM to obtain a (1:1.5) molar ratio. Measurements were performed in presence of IP6 concentrations ranging from 0 to 10 µM. Stocks solutions of IP6 and analogues are prepared so that 1 µL of IPs solutions are used in the 10 µL capillary for all concentrations tested. Each point corresponds to an average of three measurements. The temperature of transition that corresponds to the change of environment of the tryptophan is deduced from the first inflexion point of the 330 nm/350 nm ratio versus temperature.

KuFL-DNA interaction = molecular target: T4, KuFL-DNA interaction (Homo sapiens, UniProt P12956+P13010); test: switchSENSE kinetics of KuFL interaction with 48bp DNA; assay type: binding; conditions: IP6 3 μM
T4 construct: The full-length human Ku heterodimer subunits (Ku70 1–609, Ku80 1–732); 10x His-tag with TEV site (N); made in house; host or cells: Sf21 insect cells (baculovirus, MultiBac)
T4 sequence (P12956 whole entry): as the sequence (P12956 whole entry H359E/H360E) above, with E359H, E360H counted along it
T4 sequence (P13010 whole entry): as the sequence (P13010 whole entry K413E/H414E) above, with E413K, E414H counted along it
Protocol: as §1

## O=P(O)(O)O[C@H]1[C@H](OP(=O)(O)O)[C@@H](OP(=O)(O)O)[C@H](OP(=O)(O)O)[C@@H](OP(=O)(O)O)[C@H]1OP(=O)(O)O [IP6, inositol hexaphosphate]
[1]
  further thermal stabilization by IP6: not further stabilized
Ku
  Kd: 46 nM
Ku-XLF interaction
  KD1 stronger with IP6 than in absence of IP6: 3 fold
  KD2 stronger with IP6 than in absence of IP6: 14 fold
Ku-XLF interaction; without IP6 1.9 ± 0.8, read-out: KD2, apparent affinity between Ku and XLF
  Kd: 130 ± 9 nM
Ku-XLF interaction; without IP6 3.6 ± 0.6, read-out: KD1, apparent affinity between Ku and XLF
  Kd: 1200 ± 150 nM
[2]
  interaction with IP6 as measured by ITC: no interaction
KuFL
  effect on Ku thermal stability: no significant effect
KuFL-DNA interaction
  effect on Ku-DNA interaction: slight stimulation of the interaction
